# Assay results reported in US20260306460A1, “COMPOSITION FOR REMOVING AND INHIBITING SENESCENT CELLS, AND USES THEREOF” (LIFECEUTIX CO., LTD., priority 2023, published 2026).
# Assays:
# [1] = system: doxorubicin-induced aged C57BL6J mice; assay: SA-β-gal staining in doxorubicin-aged mice, Example 22-3, Table 32; format: in vivo, mouse; conditions: staining area, untreated aged = 100
# Experimental: Eight-week-old male C57BL6J mice (KRIBB Laboratory Animal Resource Center) were acclimated to the experimental environment for one week. Afterwards, the anticancer agent doxorubicin was administered intraperitoneally at a concentration of 10 mg/kg, inducing aging for more than 10 days. The aging-induced mice were randomly assigned to experimental and control groups. LX-403 was mixed with a 10% ethanol solution of PEG400 and administered orally at a concentration of 25 mg/kg or intradermally at a concentration of 1 μM for 21 days. LX-1801 was mixed in distilled water with 4% DMSO, 30% PEG300, and 5% Tween80 and administered intradermally at a concentration of 0.4 μM daily for 21 days. LX-2001 was mixed in PBS and administered intradermally at a concentration of 2 μM daily for 21 days. LX-2002 was mixed in distilled water with 4% DMSO, 30% PEG300, and 5% Tween80 and administered intradermally at a concentration of 2 μM daily for 21 days. […] LX-2005 was mixed in distilled water with 4% DMSO, 30% PEG300, and 5% Tween80 and administered intradermally at a concentration of 90 μM daily for 21 days. LX-2007 was mixed in distilled water with 4% DMSO, 30% PEG300, and 5% Tween80 and administered intradermally at a concentration of 90 μM daily for 21 days. […] LX-3002 was mixed in distilled water with 4% DMSO, 30% PEG300, and 5% Tween80 and administered orally at a concentration of 10 mg/kg daily for 21 days. […] LX-5411 was mixed in 5% phosphate-buffered saline (PBS) and administered orally at a concentration of 10 mg/kg daily for 21 days or intradermally at a concentration of 3 μM. LX-5701 was mixed in PBS and administered orally at a concentration of 360 mg/kg daily for 21 days. LX-6807 was mixed in saline and administered intraperitoneally at a concentration of 1 mg/kg daily for 21 days. The control group received only the solution in the same volume. After the end of drug administration, the methods described in each example below were performed.
# Mice were sacrificed as described in Example 7-3 of WO2023-085787 A1, and tissue sections were prepared from each organ tissue site and stained for the aging-related marker SA-β-gal.
# [2] = system: doxorubicin-induced aged C57BL6J mice; assay: Lipofuscin staining in muscle of doxorubicin-aged mice, Example 22-4, Table 33; format: in vivo, mouse; conditions: staining area, untreated aged = 100
# Experimental: Eight-week-old male C57BL6J mice (KRIBB Laboratory Animal Resource Center) were acclimated to the experimental environment for one week. Afterwards, the anticancer agent doxorubicin was administered intraperitoneally at a concentration of 10 mg/kg, inducing aging for more than 10 days. The aging-induced mice were randomly assigned to experimental and control groups. LX-403 was mixed with a 10% ethanol solution of PEG400 and administered orally at a concentration of 25 mg/kg or intradermally at a concentration of 1 μM for 21 days. LX-1801 was mixed in distilled water with 4% DMSO, 30% PEG300, and 5% Tween80 and administered intradermally at a concentration of 0.4 μM daily for 21 days. LX-2001 was mixed in PBS and administered intradermally at a concentration of 2 μM daily for 21 days. LX-2002 was mixed in distilled water with 4% DMSO, 30% PEG300, and 5% Tween80 and administered intradermally at a concentration of 2 μM daily for 21 days. […] LX-2005 was mixed in distilled water with 4% DMSO, 30% PEG300, and 5% Tween80 and administered intradermally at a concentration of 90 μM daily for 21 days. LX-2007 was mixed in distilled water with 4% DMSO, 30% PEG300, and 5% Tween80 and administered intradermally at a concentration of 90 μM daily for 21 days. […]
# [3] = system: transplanted kidney of aged mice; assay: Efficiency of kidney transplantation from aged mice into young mice; format: in vivo, mouse
# Experimental: Furthermore, the efficiency of kidney transplantation following the removal of senescent cells from the kidney was evaluated. Kidneys extracted from aged mice of Example 21-1, untreated and treated with LX-403, were transplanted into 3-month-old young mice. Three days later, the efficiency of kidney transplantation was assessed through analysis of markers of aging and kidney damage. […] This improvement in transplantation efficiency was also observed when kidneys extracted from aged mice were transplanted after removing senescent cells under ex vivo conditions, such as by culturing them in an LX-403-containing medium.
# proliferating A549 cells = assay: Survival of proliferating A549 cells treated with supernatant from death-induced cancer cells, Example 14; format: cell-based, human; conditions: for viability at 30 µM: Homo sapiens
# Experimental: In the same way as Examples 12 and 13, senescence of cancer (A549) cells was induced by treatment with doxorubicin or the control group (DMSO), and the cells were cultured. The cells were treated with LX-405 at a concentration of 30 μM. 3 days later, cell viability was measured using CellTiter-Glo Luminescent Cell Viability Assay (Promega) or an optical microscope. In the same manner as in Example 13, the medium supernatants comprising secreted fluid from normally proliferating and senescent cancer cells was obtained. Normally proliferating and senescent-induced cancer cells were treated with the medium supernatants.
# [4] = system: non-senescent proliferating human cells; assay: Effect on non-senescent (proliferating) human cells; format: cell-based; conditions: normally proliferating foreskin cells; 30 μM, 3 days
# Text: Based on the results of Example 10 of WO2023-085787 A1, compounds that induce the death of senescent cells through a mechanism similar to LX-112, unlike existing senescent cell removers such as ABT-263, were screened based on HMGN1. […] The following test compounds were synthesized by and purchased from Medchemexpress, Selleckchem, Cayman, Medkoo, Sigma, Molport, Enzo, TCI, Santa Cruz, REONSIMI, Abcam, Alfa Aesar, APExBIO, BOCSCI, Merck, Thermo Fisher Scientific, R&D Systems, ChemFaces, Aobious, etc. […] In cells in which senescence was not induced by treatment with the control group (DMSO), the amount of HMGN1 above the effective value (sensitivity: 35 pg/ml), analysis limit, was not detected in both untreated and treated conditions with the test compound. On the other hand, in cells where senescence was induced by treatment with doxorubicin, the amount of HMGN1 was measured at 80 to 90 pg/ml. […]
# After 3 days, cell viability was measured using CellTiter-Glo Luminescent Cell Viability Assay (Promega) or light microscopy.
# Using the same method as Example 11, compounds that induce senescent cell death through a mechanism similar to that of LX-112 (ethaselen (1,2-[bis(1,2-benzisoselenazolone-3 (2H)-ketone)]ethane)) were screened based on HMGN1 and others. […] On the other hand, in cells senescent with doxorubicin, an amount of HMGN1 of […] was measured. […]
smiles,measurement,setting,value
O=C1C2CCN(CC2)C1CNC(=O)C(F)(F)F (centres unmarked) [LX-5701],"SA-β-gal (%), Kidney",[1]; Kidney,64 (±9.7) %
same,"SA-β-gal (%), Liver",[1]; Liver,43 (±14.2) %
same,"SA-β-gal (%), Lung",[1]; Lung,68 (±14.8) %
same,"SA-β-gal (%), eWAT",[1]; eWAT,66 (±10.5) %
same,"Lipofuscin (%), Muscle",[2],64 (±13.1) %
O=C(C(C[N+](=O)[O-])=NO)N1CCN(C(c2ccc(Cl)cc2)c2ccc(Cl)cc2)CC1 [LX-403],"p16 of transplanted kidney, serum urea and creatinine",[3]; 3 days after transplantation,reduced
same,efficiency of kidney transplantation,"[3]; mouse, in vivo",improves the efficiency of kidney transplantation
COC(=O)c1ccc([C@H]2c3[nH]c4ccccc4c3C[C@H](C(=O)OC)N2C(=O)CCl)cc1 [LX-405],Survival,"proliferating A549 cells; A549, supernatant from No Cells",101.4 (±1.3) %
same,viability at 30 µM,"proliferating A549 cells; A549, A549, supernatant from death-induced proliferating cells",98.6%
same,viability at 30 µM,"proliferating A549 cells; A549, A549, supernatant from death-induced senescent cells",105%
same,induced death of cells,[4],induced the death of most cells
